Experimental data as given in patent US8048879B2, “Substituted 4,5,6,7-tetrahydro-isoxazolo[4,5-c]pyridine compounds and use thereof for producing medicaments” (Gruenenthal GmbH, priority 2005, dated 2011).

target: T1, 5-HT transporter (Rattus norvegicus, UniProt P31652); assay: 5-HT uptake inhibition, synaptosomes from rat brain (medulla and pons); format: biochemical
T1 construct: from tissue; host or cells: rat brain (medulla and pons), synaptosomes, P2 fraction
Method in brief: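 Freshly isolated rat brain synaptosomes (P2 fraction): hypothalamus for NA uptake, medulla/pons for 5-HT uptake. Uptake of [3H]-NA (7.5 min) or [3H]-5-HT (5 min) at room temperature under O2, stopped by filtration over GF/B. Retained radioactivity counted by scintillation.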

T1 sequence (P31652 whole entry): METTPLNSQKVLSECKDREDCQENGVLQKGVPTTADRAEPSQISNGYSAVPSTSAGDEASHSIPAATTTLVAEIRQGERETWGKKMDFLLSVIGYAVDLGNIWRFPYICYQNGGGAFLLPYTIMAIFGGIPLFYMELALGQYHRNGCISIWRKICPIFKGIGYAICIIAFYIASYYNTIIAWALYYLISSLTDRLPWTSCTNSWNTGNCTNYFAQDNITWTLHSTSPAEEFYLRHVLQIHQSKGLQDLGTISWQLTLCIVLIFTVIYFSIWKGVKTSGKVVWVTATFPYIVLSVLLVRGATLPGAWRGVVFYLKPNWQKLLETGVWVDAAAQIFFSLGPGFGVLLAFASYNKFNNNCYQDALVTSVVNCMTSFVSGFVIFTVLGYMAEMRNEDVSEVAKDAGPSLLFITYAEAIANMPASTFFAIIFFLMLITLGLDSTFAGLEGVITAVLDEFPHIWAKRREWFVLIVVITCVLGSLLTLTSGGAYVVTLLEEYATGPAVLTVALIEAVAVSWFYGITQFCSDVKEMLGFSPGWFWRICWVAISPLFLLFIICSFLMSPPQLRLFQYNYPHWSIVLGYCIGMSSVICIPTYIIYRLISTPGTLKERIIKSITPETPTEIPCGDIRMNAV

SMILES | inhibition at 10 µM [%] | 5-HT uptake (rat), 10 μM, % inhibition [%]
CC(C)CNC(=O)c1noc2c1CN(C(=O)c1cc(C(F)(F)F)ccc1Cl)CC2 [Example 116, 5-(2-chloro-5-trifluoromethyl-benzoyl)-4,5,6,7-tetrahydro-isoxazolo[4,5-c]pyridine-3-carboxylic acid isobutyl amide] | 77 | 
CN(C)CCNC(=O)c1noc2c1CN(C(=O)c1cccc(OC(F)(F)F)c1)CC2 [Example 119, 5-(3-trifluoromethoxy-benzoyl)-4,5,6,7-tetrahydro-isoxazolo[4,5-c]pyridine-3-carboxylic acid (2-dimethylamino-ethyl) amide] | 73 | 
O=C(NCc1ccc(F)cc1)c1noc2c1CN(C(=O)c1ccc3ncccc3c1)CC2 [Example 124, 5-(quinoline-6-carbonyl)-4,5,6,7-tetrahydro-isoxazolo[4,5-c]pyridine-3-carboxylic acid 4-fluorobenzyl amide] | 65 | 
CC(C)CNC(=O)c1noc2c1CN(C(=O)C(NC(=O)OCc1ccccc1)c1ccccc1)CC2 (centres unmarked) [Example 126, [2-(3-isobutylcarbamoyl-6,7-dihydro-4H-isoxazolo[4,5-c]pyridin-5-yl)-2-oxo-1-phenyl-ethyl]-carbamic acid benzyl ester] | 80 | 
O=C(NC(=S)N1CCc2onc(C(=O)NCCN3CCCC3)c2C1)c1ccccc1 [Example 128, 5-benzoylaminocarbothioyl-4,5,6,7-tetrahydro-isoxazolo[4,5-c]pyridine-3-carboxylic acid (2-pyrrolidin-1-yl-ethyl) amide] | 80 | 
O=C(NCC1CC1)c1noc2c1CN(C(=S)NCc1ccc(Cl)cc1)CC2 [Example 129, 5-(4-chloro-benzylthiocarbamoyl)-4,5,6,7-tetrahydro-isoxazolo[4,5-c]pyridine-3-carboxylic acid cyclopropylmethyl amide] | 75 | 
Cc1ccc(CNC(=O)c2noc3c2CN(C(=S)Nc2c(F)c(F)c(F)c(F)c2F)CC3)o1 [Example 133, 5-pentafluorophenylthiocarbamoyl-4,5,6,7-tetrahydro-isoxazolo[4,5-c]pyridine-3-carboxylic acid (5-methyl-furan-2-ylmethyl) amide] |  | 63
CCOC(=O)CCNC(=O)c1noc2c1CN(C(=S)NCC1CCCCC1)CC2 [Example 134, 3-{[5-(cyclohexylmethyl-thiocarbamoyl)-4,5,6,7-tetrahydro-isoxazolo[4,5-c]pyridine-3-carbonyl]-amino}-propionic acid ethyl ester] | 61 | 
